{"source": "patent US7265096B2", "about": "(XenoPort, Inc., priority 2002, dated 2007)", "key": {"[1]": {"assay": "Pharmacokinetics and intestinal exposure to gemcitabine after oral dosing in mice", "format": "in vivo", "conditions": "male, mouse, blood, po, 20 mg-eq. gemcitabine/kg; read-out: Fpo (oral bioavailability)", "procedure": "Blood samples (0.5 mL) were obtained by cardiac puncture from 4 animals at each time point (1, 5, 10, 15, 30, 45 minutes and 1, 2, 4, 6 and 24 hr post-dosing). Samples were immediately transferred to tubes containing 10 μL of tetrahydrouridine (50 μg/mL in 50% methanol/water) to prevent further deamination and aliquots (100 μL) were quenched with a solution of 1% w/w formic acid in acetonitrile (300 μL). Quenched blood samples were stored at −80° C. until analyzed. Following collection of blood samples, the small intestine of each animal was removed, rinsed with saline, scraped to remove the mucosal layer, and the mucosal tissue was transferred to a pre-weighed vial containing 10 μL of tetrahydrouridine (50 μg/mL in 50% methanol/water). Sample vials were snap frozen in dry ice/acetone and stored at −80° C. until analyzed. Mucosal tissue samples were diluted 1:10 in water and 100 μL of the resulting sample was added to 400 μL of methanol."}, "[2]": {"test_system": "human ENT1, ENT2, CNT1 and CNT3", "conditions": "literature (Mackey et al.; Fang et al.); cited from earlier work"}, "CNT2": {"molecular_target": "T1, CNT2 (Homo sapiens, UniProt O43868)", "T1 sequence (O43868 1-658)": "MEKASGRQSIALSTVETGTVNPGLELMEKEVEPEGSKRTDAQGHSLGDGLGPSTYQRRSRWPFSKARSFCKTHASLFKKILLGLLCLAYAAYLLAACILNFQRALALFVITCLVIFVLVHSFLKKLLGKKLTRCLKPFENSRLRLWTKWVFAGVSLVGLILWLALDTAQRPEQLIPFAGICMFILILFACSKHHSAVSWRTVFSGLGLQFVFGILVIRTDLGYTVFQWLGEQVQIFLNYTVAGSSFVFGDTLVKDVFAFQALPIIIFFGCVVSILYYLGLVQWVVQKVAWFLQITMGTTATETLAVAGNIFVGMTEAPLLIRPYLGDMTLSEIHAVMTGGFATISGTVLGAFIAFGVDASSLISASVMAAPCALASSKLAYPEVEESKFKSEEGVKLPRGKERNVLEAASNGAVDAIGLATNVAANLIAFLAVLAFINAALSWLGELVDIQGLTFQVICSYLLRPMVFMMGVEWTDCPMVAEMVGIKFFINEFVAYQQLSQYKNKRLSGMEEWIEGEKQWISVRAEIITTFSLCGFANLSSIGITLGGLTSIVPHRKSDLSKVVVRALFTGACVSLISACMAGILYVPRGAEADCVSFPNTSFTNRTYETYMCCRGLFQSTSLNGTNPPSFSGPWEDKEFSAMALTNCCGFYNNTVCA", "conditions": "literature (Mackey et al.; Fang et al.); cited from earlier work"}, "[3]": {"conditions": "intravenous infusion for up to 12 hours; cited from earlier work"}}}
{"smiles": "Nc1ccn([C@@H]2O[C@H](CO)[C@@H](O)C2(F)F)c(=O)n1", "note": "[gemcitabine, 2′,2′-difluoro-2′-deoxycytidine]", "values": [{"measurement": "bioavailability", "setting": "[1]", "value": 20, "unit": "%"}, {"measurement": "Transport by human ENT1, ENT2, CNT1 and CNT3", "setting": "[2]", "value": "transported by human ENT1, ENT2, CNT1 and CNT3"}, {"measurement": "Transport by CNT2", "setting": "CNT2", "value": "not the purine-selective concentrative transporter CNT2"}, {"measurement": "Dose reported to be tolerated in patients", "setting": "[3]", "value": 10, "unit": "mg/m^2/min"}]}
